Test results published in ChEMBL document CHEMBL1697731, “Cheminformatics analysis of assertions mined from literature that describe drug-induced liver injury in different species” (Chem Res Toxicol, 2010).
Where a SMILES comes first, the peptide text is derived from it. Bridges are numbered along the chain shown (N, C = ends). [ ]: non-standard residue; d: D form. The star is where a group is joined. Threoninol(2S,3R) = C[C@@H](O)[C@H](CO)N*

Experiments:
[1] = system: Hepatotoxicity; assay: Literature-mined compound from Fourches et al multi-species drug-induced liver injury (DILI) dataset, effect in humans; details: human
[2] = system: Hepatotoxicity; assay: Literature-mined compound from Fourches et al multi-species drug-induced liver injury (DILI) dataset, effect in rodents; details: rodentia
[3] = system: Hepatotoxicity; assay: Literature-mined compound from Fourches et al multi-species drug-induced liver injury (DILI) dataset, effect in non-rodents

Compound	Hepatotoxicity ([1]; Liver)	Hepatotoxicity ([2]; Liver)	Hepatotoxicity ([3]; Liver)	Hepatotoxicity [1]	Hepatotoxicity [2]	Hepatotoxicity [3]
N[C@@H]1C[C@H]1c1ccccc1.N[C@H]1C[C@@H]1c1ccccc1 [TRANYLCYPROMINE]	drug-induced liver injury reported	drug-induced liver injury reported	drug-induced liver injury reported			
CCc1oc2ccccc2c1C(=O)c1ccc(O)cc1 [BENZARONE]				drug-induced liver injury reported	drug-induced liver injury reported	no drug-induced liver injury reported
CC(=O)CCCCn1c(=O)c2c(ncn2C)n(C)c1=O [PENTOXIFYLLINE]				drug-induced liver injury reported	drug-induced liver injury reported	drug-induced liver injury reported
CC/C(=C(\c1ccc(I)cc1)c1ccc(OCCN2CCCC2)cc1)c1ccccc1 [IDOXIFENE]				no drug-induced liver injury reported	drug-induced liver injury reported	no drug-induced liver injury reported
Cc1ccccc1-n1c(C)nc2ccccc2c1=O [METHAQUALONE]				no drug-induced liver injury reported	drug-induced liver injury reported	no drug-induced liver injury reported
CCN(CC)CCOc1ccc(C(=C(Cl)c2ccccc2)c2ccccc2)cc1 (stereo in doubt; form 1) [CLOMIPHENE]				drug-induced liver injury reported	no drug-induced liver injury reported	no drug-induced liver injury reported
CC1=C(/C=C/C(C)=C/C=C/C(C)=C/C(=O)O)C(C)(C)CCC1 [TRETINOIN]				drug-induced liver injury reported	drug-induced liver injury reported	no drug-induced liver injury reported
COc1cccc(C2(O)CCCCC2CN(C)C)c1 (stereo not given) [TRAMADOL]				drug-induced liver injury reported	drug-induced liver injury reported	no drug-induced liver injury reported
CN1C(C(=O)Nc2ccccn2)=C(O)c2sccc2S1(=O)=O [TENOXICAM]	drug-induced liver injury reported	no drug-induced liver injury reported	no drug-induced liver injury reported			
CC[C@H]1OC(=O)[C@H](C)[C@@H](O[C@H]2C[C@@](C)(OC)[C@@H](O)[C@H](C)O2)[C@H](C)[C@@H](O[C@@H]2O[C@H](C)C[C@H](N(C)C)[C@H]2O)[C@](C)(O)C[C@@H](C)C(=O)[C@H](C)[C@@H](O)[C@]1(C)O.O=C(O)[C@H](O)[C@@H](O)[C@H](O[C@@H]1O[C@H](CO)[C@H](O)[C@H](O)[C@H]1O)[C@H](O)CO [ERYTHROMYCIN LACTOBIONATE]				drug-induced liver injury reported	no drug-induced liver injury reported	no drug-induced liver injury reported
Nc1cc(-c2ccncc2)c[nH]c1=O [INAMRINONE]				no drug-induced liver injury reported	drug-induced liver injury reported	no drug-induced liver injury reported
CC(=O)O[C@]1(C(C)=O)CC[C@H]2[C@@H]3C[C@H](C)C4=CC(=O)CC[C@]4(C)[C@H]3CC[C@@]21C [MEDROXYPROGESTERONE ACETATE]				no drug-induced liver injury reported	drug-induced liver injury reported	no drug-induced liver injury reported
CC1=C(/C=C/C(C)=C/C=C/C(C)=C\C(=O)O)C(C)(C)CCC1 [ISOTRETINOIN]				drug-induced liver injury reported	no drug-induced liver injury reported	no drug-induced liver injury reported
CC(=O)O[C@]1(C(C)=O)CC[C@H]2[C@@H]3C=C(Cl)C4=CC(=O)CC[C@]4(C)[C@H]3CC[C@@]21C [CHLORMADINONE ACETATE]				drug-induced liver injury reported	drug-induced liver injury reported	drug-induced liver injury reported
CCC(=C(c1ccc(O)cc1)c1ccc(OCCN(C)C)cc1)c1ccccc1				drug-induced liver injury reported	drug-induced liver injury reported	no drug-induced liver injury reported
CC(C)NNC(=O)COc1ccc(Cl)cc1 [IPROCLOZIDE]				drug-induced liver injury reported	no drug-induced liver injury reported	no drug-induced liver injury reported
CCCCCCCCNC(C)C(O)c1ccc(SC(C)C)cc1 (stereo not given) [SULOCTIDIL]				drug-induced liver injury reported	no drug-induced liver injury reported	no drug-induced liver injury reported
C[C@]12CC[C@H]3[C@@H](CCC4=CC(=O)CC[C@@]43C)[C@@H]1CC[C@@H]2O [TESTOSTERONE]				drug-induced liver injury reported	drug-induced liver injury reported	drug-induced liver injury reported

Compound	Hepatotoxicity ([1]; Liver)	Hepatotoxicity ([2]; Liver)	Hepatotoxicity ([3]; Liver)	Hepatotoxicity [1]	Hepatotoxicity [2]	Hepatotoxicity [3]
CC(c1ccc(Cl)c(Cl)c1)N1N=C(N)CC1=O (stereo not given) [MUZOLIMINE]				drug-induced liver injury reported	no drug-induced liver injury reported	no drug-induced liver injury reported
CC(=O)NO [ACETOHYDROXAMIC ACID]				no drug-induced liver injury reported	drug-induced liver injury reported	no drug-induced liver injury reported
CCC1=C(C[C@H]2NCCc3cc(OC)c(OC)cc32)C[C@H]2c3cc(OC)c(OC)cc3CCN2C1 [DEHYDROEMETINE]				no drug-induced liver injury reported	drug-induced liver injury reported	no drug-induced liver injury reported
COc1ccc(C(=O)Nc2ccccc2CCC2CCCCN2C)cc1 (stereo not given) [ENCAINIDE]				drug-induced liver injury reported	no drug-induced liver injury reported	no drug-induced liver injury reported
COc1cc([C@@H]2c3cc4c(cc3[C@@H](O[C@@H]3O[C@@H]5CO[C@@H](c6cccs6)O[C@H]5[C@H](O)[C@H]3O)[C@H]3COC(=O)[C@H]23)OCO4)cc(OC)c1O [TENIPOSIDE]				no drug-induced liver injury reported	drug-induced liver injury reported	no drug-induced liver injury reported
CCOC(=O)[C@H](CCc1ccccc1)N[C@@H](C)C(=O)N1Cc2ccccc2C[C@H]1C(=O)O				drug-induced liver injury reported	no drug-induced liver injury reported	no drug-induced liver injury reported
CCc1cccc2c3c([nH]c12)C(CC)(CC(=O)O)OCC3 (stereo not given) [ETODOLAC]				drug-induced liver injury reported	drug-induced liver injury reported	no drug-induced liver injury reported
Nc1ccc(O)c(C(=O)O)c1 [MESALAMINE]				drug-induced liver injury reported	drug-induced liver injury reported	no drug-induced liver injury reported
C#CC1(O)CC[C@H]2[C@@H]3CCC4=CC(=O)CC[C@@H]4[C@H]3CC[C@@]21CC (stereo not given in full) [NORGESTREL]	drug-induced liver injury reported	drug-induced liver injury reported	no drug-induced liver injury reported			
CCOC(=O)[C@H](CCc1ccccc1)N[C@@H](C)C(=O)N1[C@H](C(=O)O)C[C@@H]2CCC[C@@H]21				drug-induced liver injury reported	drug-induced liver injury reported	no drug-induced liver injury reported
C[C@H]1O[C@@H](O[C@H]2[C@@H](O)C[C@H](O[C@H]3[C@@H](O)C[C@H](O[C@H]4CC[C@@]5(C)[C@H](CC[C@@H]6[C@@H]5C[C@@H](O)[C@]5(C)[C@@H](C7=CC(=O)OC7)CC[C@]65O)C4)O[C@@H]3C)O[C@@H]2C)C[C@H](O)[C@@H]1O [DIGOXIN]				no drug-induced liver injury reported	drug-induced liver injury reported	drug-induced liver injury reported
CO/N=C(\C(=O)N[C@@H]1C(=O)N2C(C(=O)O)=C(COC(C)=O)CS[C@H]12)c1csc(N)n1 [CEFOTAXIME]				drug-induced liver injury reported	no drug-induced liver injury reported	no drug-induced liver injury reported
CC(C)c1cccc(C(C)C)c1O [PROPOFOL]	drug-induced liver injury reported	drug-induced liver injury reported	drug-induced liver injury reported			
O=C(O)c1cn(C2CC2)c2cc(N3CCNCC3)c(F)cc2c1=O [CIPROFLOXACIN]	drug-induced liver injury reported	drug-induced liver injury reported	no drug-induced liver injury reported			
C[C@@H](O)[C@H](CO)NC(=O)[C@@H]1CSSC[C@H](NC(=O)[C@H](N)Cc2ccccc2)C(=O)N[C@@H](Cc2ccccc2)C(=O)N[C@H](Cc2c[nH]c3ccccc23)C(=O)N[C@@H](CCCCN)C(=O)N[C@@H]([C@@H](C)O)C(=O)N1 (H-[dF]CF[dW]KTC-{Threoninol(2S,3R)}; disulfide 2-7)				drug-induced liver injury reported	drug-induced liver injury reported	no drug-induced liver injury reported
O=C(O)COc1nn(Cc2ccccc2)c2ccccc12 [BENDAZAC]	drug-induced liver injury reported	no drug-induced liver injury reported	no drug-induced liver injury reported			
POLYMYXIN B				drug-induced liver injury reported	drug-induced liver injury reported	no drug-induced liver injury reported
